Assay results from patent US5128369A, “Arylalkylamine derivatives” (Kyowa Hakko Kogyo Co., Ltd., priority 1989, dated 1992).
pIC50: −log10 of the molar value.

Experiments:
PCA reaction = test: 48 hour-homologous passive cutaneous anaphylaxis (PCA) test in rats (antiallergic effects); assay type: in vivo, rat (male Wistar); design: key to Anti-PCA MED (minimum effective dosage): NE: no effect; settings: rat, oral, 1 hour before PCA challenge, inhibition 50% or higher in at least one of three animals; for minimal effective dose: read-out: Anti-PCA MED (minimum effective dosage)
Protocol: Antiallergic effects: Antiallergic effects of compounds were studied by passive cutaneous anaphylaxis (PCA) test in rats. Male Wistar rats weighing 180 to 220 g were used for collection of antiserum and Male Wistar rats weighing 120 to 140 g for PCA test. (A) Preparation of anti-EWA serum in rat Anti-EWA rat serum was prepared by the method of Stotland, et al [Can. J. Physiol. Pharmacol., 52, 1114, (1974)] as follows. That is, 1 mg of EWA, 20 mg of aluminium hydroxide gel and 0.5 ml of mixed vaccine of pertussis, diphtheria and tetanus were mixed, and the mixture was subcutaneously injected in four foodpads of rats. After 14 days, the blood of sensitized rats was collected from the carotid artery. The serum was separated by centrifugation from collected blood, and stored at -80° C. The 48 hour homologous PCA titer of the serum was 1 :64. (B) Effects on 48 hour-homologous PCA tests in rats Three rats in each group were passively sensitized with 8 hold diluted anti-EWA serum (0.05 ml) intradermally injected in two sites of shaved dosal area of rats. After 47 hours, the test compound or its solvent (saline or CMC solution) was orally administrated, and 1 hour thereafter, PCA reaction was induced by intravenous administration of 1% Evan's blue in saline (0.5 ml/100 g) containing 2 mg of EWA. After 30 minutes, animals were sacrificed by bleeding and dorsal skin was stripped to determine the leakage of dye at blue spots, by the method of Katayama et al. [Microbiol. Immunol., 22, 89 (1978)]. The blue-dyed spots were dissected and placed in a test tube containing 1 ml of 1N sodium hydroxide and incubated at 37° C. for 48 hours. Then, 9 ml of a mixture of 0.6N phosphate:acetone (5:13) was added thereto. After shaking, the mixture was centrifuged at 2500 rpm for 10 minutes. A supernatant was separated, and extravasated dye in the supernatant was determined photometrically at 620 nm. Inhibition percent was calculated as follows: [formula]

dd-mice = test: Acute toxicity (minimum lethal dose); assay type: in vivo; settings: male dd-mice, mortality for seven days
Protocol: The compounds were orally administrated (po) or intraperitoneally administrated (ip) to three male dd-mice weighing 20±1 g. Minimum lethal dose (MLD) was determined by observing the mortality for seven days after the administration.

[1] = system: tracheae (zig-zag strips from passively sensitized guinea pigs); test: passive Schultz-Dale reaction (bronchodilatory effects), relaxation of antigen-contracted tracheal strips; design: species or system guinea pig (male Hartley); settings: Cavia porcellus; EWA (1 μg/ml)-induced contraction, guinea pig trachea, 37° C., cumulative addition; read-out: Bronchodilatory effect IC50 (concentration to produce 50% relaxation)
Protocol: Effects on passive Schultz-Dale reaction (bronchodilatory effects)
After 24 hours, the guinea pigs were stunned and exsanguinated, and then tracheae were removed. The zig-zag strips of the tracheae were prepared by the method of Emmerson, et al. [J. Pharm. […] After the contraction reached stable plateau, the compounds were cumulatively added in order to get concentration-relaxation curves.

| SMILES | Anti-PCA MED (minimum effective dosage) (PCA reaction) | Acute Toxicity MLD ip (minimum lethal dose) (dd-mice) [mg/kg] | Acute Toxicity MLD po (minimum lethal dose) (dd-mice) [mg/kg] | pIC50 [1] | minimal effective dose (PCA reaction) [mg/kg] |
| --- | --- | --- | --- | --- | --- |
| CC(CC1OCCc2ccccc21)NC[C@@H](O)c1ccccc1 (stereo partly drawn) [Compound 6, (1S)-2-[2-(Isochroman-1-yl)-1-methylethylamino]-1-phenylethanol] | NE | > 100 | 200 | 4.92 | – |
| CC(CC1OCCc2ccccc21)NC[C@@H](O)c1ccc(O)cc1 (stereo partly drawn) [Compound 3, (1S)-1-(4-hydroxyphenyl)-2-[2-(isochroman-1-yl)-1-methylethylamine]ethanol] | NE | – | – | 8.56 | – |
| Oc1ccc(C(O)CNCCC2OCCc3ccccc32)cc1 (centres unmarked) [Compound 23, 1-(4-Hydroxyphenyl)-2-[2-(isochroman-1-yl)ethylamino]ethanol] | – | – | – | 8.06 | – |
| CC(CC1OCCc2ccccc21)NC[C@H](O)c1ccc(O)cc1 (some centres unmarked) [Compound 2, (IR)-1-(4-hydroxyphenyl)-2-[2-(isochroman-1-yl)-1-methylethylamino]ethanol] | – | > 100 | > 300 | 9.21 | 10 |
| CC(CC1OCCc2ccccc21)NCC(O)c1ccc(O)cc1 (centres unmarked) [Compound 1, 1-(4-Hydroxyphenyl)-2-[2-(isochroman-1-yl)-1-methylethylamino]ethanol] | – | > 100 | > 300 | 7.89 | 10 |
| CC(CC1OCCc2ccccc21)NCC(O)c1ccc(F)cc1 (centres unmarked) [Compound 16, 1-(4-Fluorophenyl)-2-[2-(isochroman-1-yl)-1-methylethylamino]ethanol] | NE | > 100 | 300 | 7.21 | – |
| CC(CC1OCCc2ccccc21)NCC(O)c1ccccc1O (centres unmarked) [Compound 8, 1-(2-Hydroxyphenyl)-2-[2-(isochroman-1-yl)-1-methylethylamino]ethanol] | NE | 100 | 200 | 7.28 | – |
| CC(CC1OCCc2ccccc21)NCC(O)c1cccc(O)c1 (centres unmarked) [Compound 7, 1-(3-Hydroxyphenyl)-2-[2-(isochroman-1-yl)-1-methylethylamino]ethanol] | – | 100 | 300 | 7.96 | 10 |
| CC(CC1OCCc2ccccc21)NCC(O)c1ccc(Cl)cc1 (centres unmarked) [Compound 17, 1-(4-Chlorophenyl)-2-[2-(isochroman-1-yl)-1-methylethylamino]ethanol] | – | 100 | 100 | 5.47 | 1 |
| CC(CC1OCCc2ccccc21)NCC(O)c1ccccc1 (centres unmarked) [Compound 4, 2-[2-(Isochroman-1-yl)-1-methylethylamino]-1-phenylethanol] | – | 100 | 200 | 6.59 | 10 |
| CC(CC1OCCc2ccccc21)NC(C)C(O)c1ccc(O)cc1 (centres unmarked) [Compound 24, 1-(4-Hydroxyphenyl)-2-[2-(isochroman-1-yl)-1-methylethylamino]-1-propanol] | NE | > 100 | > 300 | 5.80 | – |
| CC(CC1OCCc2ccccc21)NCC(O)Cc1ccccc1 (centres unmarked) [Compound 26, 1-[2-(Isochroman-1-yl)-1-methylethylamino]-3-phenyl-2-propanol] | NE | – | – | 5.04 | – |
| CC(CC1OCCc2ccccc21)NCC(O)c1cc(O)cc(O)c1 (centres unmarked) [Compound 9, 1-(3,5-Dihydroxyphenyl)-2-[2-(isochroman-1-yl)-1-methylethylamino]ethanol] | – | – | 200 | 8.93 | – |
| CC(CC1OCCc2ccccc21)NCC(O)c1cccs1 (centres unmarked) [Compound 20, 2-[2-(Isochroman-1-yl)-1-methylethylamino]-1-thienylethanol] | NE | > 100 | > 300 | 7.44 | – |
| CC(CC1CCCc2ccccc21)NCC(O)c1ccc(O)cc1 (centres unmarked) [Compound 30, 1-(4-Hydroxyphenyl)-2-[2-(1,2,3,4-tetrahydro-1-naphthyl)-1-methylethylamino]ethanol] | – | > 100 | > 300 | 8.71 | 10 |
| COc1ccc(C(O)CNC(C)CC2OCCc3ccccc32)cc1 (centres unmarked) [Compound 10, 2-[2-(Isochroman-1-yl)-1-methylethylamino]-1-(4-methoxyphenyl)ethanol] | – | 100 | 200 | 7.09 | 10 |
| COC(CNC(C)CC1OCCc2ccccc21)c1ccc(O)cc1 (centres unmarked) [Compound 25, 2-(4-Hydroxyphenyl)-N-[2-(isochroman-1-yl)-1-methylethylamino]-2-methoxyethylamine] | NE | – | – | 8.62 | – |
| CC(CC1OCCc2ccccc21)NC[C@H](O)c1ccccc1 (stereo partly drawn) [Compound 5, (1R)-2-[2-(Isochroman-1-yl)-1-methylethylamino]-1-phenylethanol] | – | 25 | 200 | 7.72 | 1 |
| CC(CC1c2ccccc2CCN1C)NCC(O)c1ccc(O)cc1 (centres unmarked) [Compound 31, 1-(4-Hydroxyphenyl)-2-[1-methyl-2-(2-methyl-1,2,3,4-tetrahydroisoquinolin-1-yl)ethylamino]ethanol] | NE | > 100 | > 300 | 7.07 | – |
